In assay [1] the target is T1, Protein cereblon/Cyclin-K/Cyclin-dependent kinase 12 (Homo sapiens, UniProt O75909+Q9NYV4+Q96SW2). The experiment in a line: Protac activity at human CRBN/CDK12/CycK in human Bel-7402 cells assessed as CycK mRNA expression measured after 6 hrs by RT-qPCR method. It counts as cell-based.
Assay [2] concerns MDA-MB-231. Kind of assay: Synergistic antiproliferative activity against human MDA-MB-231 cells in presence of 3 uM of Olaparib at 3 uM measured after 10 days by SRB staining based clone formation assay relative to control. It counts as functional. Conditions: MDA-MB-231, 240 h, time 10 day.
Assay [3] addresses T1, Protein cereblon/Cyclin-K/Cyclin-dependent kinase 12. The experiment in a line: Protac activity at human CRBN/CDK12/CycK in human Bel-7402 cells assessed as CDK12 mRNA expression measured after 6 hrs by RT-qPCR method. It counts as cell-based.
Assay [4] has the same target. Kind of assay: Protac activity at human CRBN/CDK12/CycK in human Bel-7402 cells assessed as degradation of CDK12 at 3 uM measured after 24 hrs by Western blotting assay. Format: cell-based.
Assay [5] shares this target. Kind of assay: Protac activity at human CRBN/CDK12/CycK in human Bel-7402 cells assessed as degradation of CDK7 up to 30 uM measured after 24 hrs by Western blotting assay. It counts as cell-based. Conditions: dose microM <=30, time 24.0 hrs.
Assay [6] has the same target. The experiment in a line: Protac activity at human CRBN/CDK12/CycK in human Bel-7402 cells assessed as downregulation of Mcl-1 level upto 30 uM measured after 24 hrs by Western blotting assay. Format: cell-based. The following applies: dose microM <=30, time 24.0 hrs.
For assay [7] the target is unchanged. The experiment in a line: Protac activity at human CRBN/CDK12/CycK in human Bel-7402 cells assessed as downregulation of ATM measured after 6 hrs by RT-qPCR method. Format: cell-based.
Assay [8] deals with MDA-MB-231. The experiment in a line: Synergistic antiproliferative activity against human MDA-MB-231 cells in presence of 3 uM of Olaparib at 1 uM measured after 10 days by SRB staining based clone formation assay relative to control. Format: functional. The following applies: MDA-MB-231, 240 h, time 10 day.
Assay [9] addresses T1, Protein cereblon/Cyclin-K/Cyclin-dependent kinase 12. Kind of assay: Protac activity at human CRBN/CDK12/CycK in human MDA-MB-231 cells assessed as degradation of CDK9 up to 30 uM measured after 24 hrs by Western blotting assay. It counts as cell-based. Conditions: dose microM <=30, time 24.0 hrs.
For assay [10], the system named is MDA-MB-231. The experiment in a line: Synergistic antiproliferative activity against human MDA-MB-231 cells in presence of 3 uM of Olaparib at 3 uM measured after 10 days by Chou-Talalay method. The following applies: time 10 day. Format: functional.
Assay [11] deals with T1, Protein cereblon/Cyclin-K/Cyclin-dependent kinase 12. The experiment in a line: Protac activity at human CRBN/CDK12/CycK in human Bel-7402 cells assessed as degradation of Cyclin H upto 30 uM measured after 24 hrs by Western blotting assay. The following applies: dose microM <=30, time 24.0 hrs. Format: cell-based.
The target is the same in assay [12]. The experiment in a line: Protac activity at human CRBN/CDK12/CycK in human Bel-7402 (CRBN/KO) cells assessed as degradation of CDK12 measured after 24 hrs by Western blotting assay. Format: cell-based.
Assay [13] has the same target. The experiment in a line: Protac activity at human CRBN/CDK12/CycK in human MDA-MB-231 cells assessed as degradation of CDK7 up to 30 uM measured after 24 hrs by Western blotting assay. The following applies: dose microM <=30, time 24.0 hrs. Format: cell-based.
The test system of assay [14] is MDA-MB-231. The experiment in a line: Synergistic antiproliferative activity against human MDA-MB-231 cells in presence of 3 uM of Olaparib at 1 uM measured after 10 days by Chou-Talalay method. It counts as functional. Conditions: time 10 day.
In assay [15] the target is T1, Protein cereblon/Cyclin-K/Cyclin-dependent kinase 12. Kind of assay: Protac activity at human CRBN/CDK12/CycK in human MDA-MB-231 cells assessed as degradation of CK1alpha up to 30 uM measured after 24 hrs by Western blotting assay. Format: cell-based. Conditions: dose microM <=30, time 24.0 hrs.
The target is the same in assay [16]. The experiment in a line: Protac activity at human CRBN/CDK12/CycK in human MDA-MB-231 cells assessed as degradation of GSPT1 up to 30 uM measured after 24 hrs by Western blotting assay. Format: cell-based. Conditions: dose microM <=30, time 24.0 hrs.
The target is the same in assay [17]. Kind of assay: Protac activity at human CRBN/CDK12/CycK in human Bel-7402 cells assessed as downregulation of ATR measured after 6 hrs by RT-qPCR method. Format: cell-based.
Assay [18] concerns the target Protein cereblon/Cyclin-dependent kinase 13 (Homo sapiens) (UniProt Q14004+Q96SW2). Kind of assay: Protac activity at human CRBN/CDK13 in human Bel-7402 cells assessed as degradation of CDK13 at 0.1 to 30 uM measured after 24 hrs by Western blotting assay. Format: cell-based. The following applies: dose 0.1-30 µM.

Active and inactive are the calls of the source. No cut-off for these calls is given here.

T1 sequence (O75909 whole entry, looked up): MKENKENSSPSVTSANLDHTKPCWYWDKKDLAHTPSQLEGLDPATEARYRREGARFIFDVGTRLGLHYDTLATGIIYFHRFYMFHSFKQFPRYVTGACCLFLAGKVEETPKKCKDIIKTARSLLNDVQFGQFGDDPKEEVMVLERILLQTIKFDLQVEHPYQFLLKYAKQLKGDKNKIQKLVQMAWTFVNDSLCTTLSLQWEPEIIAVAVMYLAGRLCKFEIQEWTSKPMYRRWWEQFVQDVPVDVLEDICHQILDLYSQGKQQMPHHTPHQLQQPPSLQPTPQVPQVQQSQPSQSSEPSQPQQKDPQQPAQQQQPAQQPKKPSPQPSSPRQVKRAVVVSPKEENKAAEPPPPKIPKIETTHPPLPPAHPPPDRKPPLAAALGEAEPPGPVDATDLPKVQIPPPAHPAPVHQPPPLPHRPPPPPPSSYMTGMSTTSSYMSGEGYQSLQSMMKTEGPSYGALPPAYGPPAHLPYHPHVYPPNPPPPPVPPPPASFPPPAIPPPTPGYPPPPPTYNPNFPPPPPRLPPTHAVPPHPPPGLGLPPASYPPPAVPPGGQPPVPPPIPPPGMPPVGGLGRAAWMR
T1 sequence (Q96SW2 whole entry, looked up): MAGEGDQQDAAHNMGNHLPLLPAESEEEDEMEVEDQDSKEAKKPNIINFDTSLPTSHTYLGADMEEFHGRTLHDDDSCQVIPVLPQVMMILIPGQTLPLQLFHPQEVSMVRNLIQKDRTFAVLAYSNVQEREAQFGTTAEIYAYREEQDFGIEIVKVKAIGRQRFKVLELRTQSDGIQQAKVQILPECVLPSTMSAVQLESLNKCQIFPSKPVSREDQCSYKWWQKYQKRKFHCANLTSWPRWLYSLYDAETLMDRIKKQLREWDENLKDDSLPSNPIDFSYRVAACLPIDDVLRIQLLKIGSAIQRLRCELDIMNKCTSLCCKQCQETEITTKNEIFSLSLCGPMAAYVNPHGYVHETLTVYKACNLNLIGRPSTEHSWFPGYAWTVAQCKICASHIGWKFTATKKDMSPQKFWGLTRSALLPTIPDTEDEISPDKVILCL
T1 sequence (Q9NYV4 whole entry, looked up): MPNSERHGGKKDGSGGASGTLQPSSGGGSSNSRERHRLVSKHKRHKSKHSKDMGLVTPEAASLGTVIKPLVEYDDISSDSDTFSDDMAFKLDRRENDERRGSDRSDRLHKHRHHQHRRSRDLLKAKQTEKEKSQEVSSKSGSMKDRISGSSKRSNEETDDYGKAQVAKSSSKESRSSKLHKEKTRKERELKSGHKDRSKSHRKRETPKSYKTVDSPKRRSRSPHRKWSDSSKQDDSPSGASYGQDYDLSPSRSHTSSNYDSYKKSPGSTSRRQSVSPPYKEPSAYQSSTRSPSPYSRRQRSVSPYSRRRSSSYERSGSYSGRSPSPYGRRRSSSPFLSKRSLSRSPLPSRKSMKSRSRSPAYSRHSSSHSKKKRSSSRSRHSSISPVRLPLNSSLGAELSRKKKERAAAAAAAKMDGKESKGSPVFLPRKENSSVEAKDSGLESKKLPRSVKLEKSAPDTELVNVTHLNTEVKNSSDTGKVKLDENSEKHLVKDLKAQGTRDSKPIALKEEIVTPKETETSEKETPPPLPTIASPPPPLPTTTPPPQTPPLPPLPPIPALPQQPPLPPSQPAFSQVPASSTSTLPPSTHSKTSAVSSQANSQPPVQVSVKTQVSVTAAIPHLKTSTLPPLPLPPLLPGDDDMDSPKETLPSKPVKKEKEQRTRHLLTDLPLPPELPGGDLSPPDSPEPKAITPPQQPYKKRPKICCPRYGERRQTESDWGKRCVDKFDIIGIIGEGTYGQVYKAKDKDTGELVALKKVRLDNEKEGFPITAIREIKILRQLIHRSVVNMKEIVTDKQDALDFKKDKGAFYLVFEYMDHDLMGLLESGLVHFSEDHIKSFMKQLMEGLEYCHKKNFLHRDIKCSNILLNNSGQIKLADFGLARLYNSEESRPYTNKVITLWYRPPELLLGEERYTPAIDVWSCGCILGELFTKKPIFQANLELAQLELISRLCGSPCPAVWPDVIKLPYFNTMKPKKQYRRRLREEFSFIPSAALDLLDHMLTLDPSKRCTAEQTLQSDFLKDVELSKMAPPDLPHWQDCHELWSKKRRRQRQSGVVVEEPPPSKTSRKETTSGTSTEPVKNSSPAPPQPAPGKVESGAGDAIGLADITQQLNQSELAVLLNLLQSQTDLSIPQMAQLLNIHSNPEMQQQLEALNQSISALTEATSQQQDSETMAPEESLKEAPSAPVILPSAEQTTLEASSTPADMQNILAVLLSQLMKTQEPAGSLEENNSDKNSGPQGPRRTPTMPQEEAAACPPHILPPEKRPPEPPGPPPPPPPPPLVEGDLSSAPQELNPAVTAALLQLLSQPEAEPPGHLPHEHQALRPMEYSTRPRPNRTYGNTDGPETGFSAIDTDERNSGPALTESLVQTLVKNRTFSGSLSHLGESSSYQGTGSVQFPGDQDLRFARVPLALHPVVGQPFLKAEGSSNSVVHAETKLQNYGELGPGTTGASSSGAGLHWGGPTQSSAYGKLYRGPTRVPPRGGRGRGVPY
Protein cereblon/Cyclin-dependent kinase 13 (Homo sapiens), sequence (Q14004 whole entry, looked up): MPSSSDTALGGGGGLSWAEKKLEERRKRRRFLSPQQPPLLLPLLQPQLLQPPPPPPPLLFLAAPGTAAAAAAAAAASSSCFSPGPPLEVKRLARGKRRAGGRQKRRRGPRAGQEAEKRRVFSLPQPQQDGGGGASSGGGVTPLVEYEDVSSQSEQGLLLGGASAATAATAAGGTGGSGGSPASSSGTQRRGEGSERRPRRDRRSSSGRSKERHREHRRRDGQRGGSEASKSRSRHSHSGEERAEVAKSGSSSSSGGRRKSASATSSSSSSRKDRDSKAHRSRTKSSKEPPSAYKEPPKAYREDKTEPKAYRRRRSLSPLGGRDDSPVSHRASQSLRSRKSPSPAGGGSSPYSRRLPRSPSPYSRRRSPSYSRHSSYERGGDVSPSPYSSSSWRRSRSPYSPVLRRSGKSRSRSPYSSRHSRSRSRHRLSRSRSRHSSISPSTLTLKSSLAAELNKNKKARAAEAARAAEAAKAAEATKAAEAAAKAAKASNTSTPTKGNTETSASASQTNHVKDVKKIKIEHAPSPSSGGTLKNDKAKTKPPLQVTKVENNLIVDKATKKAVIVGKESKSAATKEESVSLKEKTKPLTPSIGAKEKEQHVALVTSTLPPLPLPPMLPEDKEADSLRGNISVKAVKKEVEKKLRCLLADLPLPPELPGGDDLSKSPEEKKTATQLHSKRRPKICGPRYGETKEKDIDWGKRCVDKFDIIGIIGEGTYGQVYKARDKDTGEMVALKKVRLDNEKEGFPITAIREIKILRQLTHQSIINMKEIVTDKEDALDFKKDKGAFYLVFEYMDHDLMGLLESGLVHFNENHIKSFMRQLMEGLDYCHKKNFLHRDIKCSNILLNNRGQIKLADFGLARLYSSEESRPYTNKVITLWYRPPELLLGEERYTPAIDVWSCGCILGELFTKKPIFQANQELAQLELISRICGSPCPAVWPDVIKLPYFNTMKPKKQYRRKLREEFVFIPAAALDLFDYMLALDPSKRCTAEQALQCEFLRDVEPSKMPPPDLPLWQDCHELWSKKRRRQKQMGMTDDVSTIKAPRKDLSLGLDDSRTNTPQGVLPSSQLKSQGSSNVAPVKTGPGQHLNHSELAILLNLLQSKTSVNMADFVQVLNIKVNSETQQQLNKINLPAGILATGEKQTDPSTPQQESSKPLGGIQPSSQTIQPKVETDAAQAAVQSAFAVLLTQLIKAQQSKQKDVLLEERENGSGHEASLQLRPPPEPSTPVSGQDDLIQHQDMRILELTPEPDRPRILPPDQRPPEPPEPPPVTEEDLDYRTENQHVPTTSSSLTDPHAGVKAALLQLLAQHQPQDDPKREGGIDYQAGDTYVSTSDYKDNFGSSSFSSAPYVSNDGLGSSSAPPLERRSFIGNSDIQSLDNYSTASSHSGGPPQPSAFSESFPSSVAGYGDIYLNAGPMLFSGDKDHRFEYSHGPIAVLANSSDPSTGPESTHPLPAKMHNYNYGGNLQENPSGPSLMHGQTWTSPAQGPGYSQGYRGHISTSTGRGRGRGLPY
Protein cereblon/Cyclin-dependent kinase 13 (Homo sapiens), sequence (Q96SW2 whole entry, looked up): as the sequence (Q96SW2 whole entry, looked up) above

Take `CC(C)n1cnc2c(NCc3nc4cc(F)c(NCCCCCCCCNC(=O)COc5cccc6c5C(=O)N(C5CCC(=O)NC5=O)C6=O)cc4[nH]3)nc(N3CCOCC3)nc21` (stereo not drawn): the outcome in [1], in [3], in assay [5], in assay [6], in [9] and in [11] was inactive. Besides, the outcome in [12], in assay [13], in [15] and in assay [16] was inactive. Further, the inhibition at 3 µM in the assay on MDA-MB-231 [2] worked out at 99.8%. Besides, the outcome in [4], in [7], in assay [17] and in [18] was Active. Besides, in the assay on MDA-MB-231 [8], the inhibition at 1 µM is 99.6%. In addition, the CI is 0.62 in the assay with MDA-MB-231 [10] and 0.75 in the assay on MDA-MB-231 [14].
